Patent US9498507B2, “Antiviral composition” (Piramal Enterprises Limited, priority 2011, dated 2016)

Key:
HSV-1 [1] = experiment: Mouse HSV-1 zosteriform spread infection model; assay type: in vivo, Balb/c female mice; settings: acyclovir 225 mg/kg/day topical
From the text: The assay was done as reported in Antimicrobial Agents and Chemotherapy, June 2002, p. 1766-1772, incorporated herein by reference for its procedure.
Balb/c female mice of 6 to 8 weeks which are non-pregnant and nulliparous were used for the study. All the animals were shaved on right mid dorsal area using electric hair clipper and few horizontal scarification was done on shaved area using sterile 26 gauge needle, just before viral challenge.
Prior to viral challenge, the scarified area of each mouse was cleaned with a cotton swab soaked in 70% alcohol followed by clearing the area using cotton swab soaked in sterile DMEM. Mice were then infected onto the scarified area with HSV-1 virus containing 8.27×10^3 pfu/animal. […]
The following formulations, as described in Example 6, were evaluated: • (a) Formulation IA • (b) Formulation IB • (c) Formulation IC
Formulation IA, Formulation IB and Formulation IC were applied topically thrice daily for a 5 day period. 15 mg of Formulation IA correspond to 225 mg/kg dose; 15 mg of Formulation IB correspond to 450 mg/kg dose; 15 mg of Formulation IC correspond to 675 mg/kg dose and 25 mg of Formulation IB correspond to 750 mg/kg dose evaluated in the animals.
The animals were assessed daily for morbidity, mortality and the site of infection for a period of 21 days post infection. […]

HSV-1 [2] = experiment: Primary antiviral screening, CPE inhibition assay (crystal violet staining method); assay type: cell-based; settings: Human alphaherpesvirus 1
Method: (§1) The assay was done as reported in Indian J. Med. Res., 2004, 120:24-29 incorporated herein by reference for its procedure.
(§2) Vero cells (obtained in step 1 of Example 8) were propagated at a density of 1×10^4 cells/well in 96 well plate and incubated at 37° C. in a CO2 incubator for 24 hours to form a monolayer. Samples 1 to 26 were tested by adding at 50 μg/mL and 100 μg/mL concentration (DMSO stock of 20 mg/mL of the extract was diluted to 50 μg/mL and 100 μg/mL with DMEM containing 2% FBS) in a final culture volume of 200 μL/well. Appropriate controls were included such as Vero cells alone (cell control), Vero cells with virus (virus control) and Vero cells with virus and the standard compound, acyclovir (a commercially available antiviral drug). Acyclovir was tested at the following concentrations (DMSO stock of 20 mg/mL of acyclovir was diluted to 100 μg/mL with DMEM containing 2% FBS): 12.5 μg/mL, 6.25 μg/mL, 3.125 μg/mL, 1.5 μg/mL and 0.78 μg/mL against HSV-1 and 25 μg/mL, 12.5 μg/mL, 6.25 μg/mL and 3.125 μg/mL against HSV-2. The extracts to be assayed were added 1 hour prior to infection to provide maximum sensitivity and give a tentative idea of potential inhibitors of early replicative steps such as adsorption or penetration. After one hour, cells were infected with 100 μL of appropriate viral dose per well [HSV-1 at a multiplicity of infection (MOI) of 10^4 TCID50 or HSV-2 at a MOI of 10^3 TCID50] using viral stock obtained in step 2 of Example 8. The infected cells were incubated with maintenance medium (DMEM with 2% FBS) for another 48 to 50 hours. […] The staining solution was aspirated out and the plates rinsed using distilled water until all excess stain was washed away. The plates were allowed to dry for 24 hours. CPE was evaluated visually, after staining the plaques, and microscopically and graded according to the percentage of CPE inhibition as compared to controls.

HSV-2 [3] = experiment: as above; assay type: cell-based; settings: Human alphaherpesvirus 2
Method: as §1, §2

HSV-1 [4] = experiment: Virus penetration assay; assay type: cell-based; settings: compared to sample 23 of Example 4
Method: (§3) Penetration of HSV into host cells may be defined as a step subsequent to initial binding to the host cell surface which triggers fusion of the virion envelope with the plasma membrane. This requires multiple interactions, in a cascade like manner, involving various glycoproteins (gB, gD and gH/gL) and cell surface components (Cell. Mol. Life Sci, 2008, 65, 1653-1668). […] Vero cells were seeded onto 24 well plates at a density of 1.8×10^5 cells/well. […] The cells were incubated at 4° C. for 2 hours to allow viral attachment. […] The plates were then washed with 0.85% saline and stained with 0.13% crystal violet.

HSV-2 [5] = experiment: Virus penetration assay; assay type: cell-based; settings: compared to sample 23 of Example 4
Method: as §3

HSV-1 [6] = experiment: Effect on replication at different time points post-infection (MTT); assay type: cell-based
Method: (§4) These stages occur at different time points in the virus life cycle spanning from 1 hour—initiation of adsorption to 24 hours—completion of one HSV replication cycle. Adsorption stage of the virus life cycle is the initial attachment of the herpes virus to host cells which involves interaction of gC and gD (conserved glycoproteins) on the virus with cell surface receptors such as heparin sulfate. Attachment stage of the virus life cycle is the stable attachment which allows close association of virus with the cell. The stage of the virus life cycle subsequent to the adsorption and attachment stages is known as the post infection stage. Vero cells were seeded onto 96-well flat-bottomed plates at a density of 2.2×10^4 cells/well in 10% FBS-DMEM growth medium. After 20-24 hours, the confluent monolayers were infected with 100 μL/well of 1:10^4 virus dilution (HSV-1 clinical strain) (TCID50 5.88×10^6/mL) or 1:10^3 dilution of HSV-2 (TCID50 2.43×10^6/mL) and plates incubated for 1 hour at 37° C. and 5% CO2. […] Maintenance medium was added to the wells for virus control (virus dilution+maintenance medium) and cell control (maintenance medium only). The plates were further incubated for 48-50 hours at 37° C. […] The plate was left in the 37° C., 5% CO2 incubator overnight. After incubation, the plate cover was removed and absorbance measured in each well at 570 nm in the microplate plate reader (BIO-TEK, Synergy HT).

HSV-2 [7] = experiment: as above; assay type: cell-based
Method: as §4

HSV-1 [8] = experiment: Virucidal activity assay; assay type: cell-based; settings: 25-400 μg/mL
From the text: (§5) In the virucidal assay, the continuous presence of an antiviral drug may be frequently required for blocking infectivity of viral particle for cultured cells and dilution of the virus-extract complexes may dissociate, releasing infectious virus (Antiviral research, 2010, 86, 196-203). If a sample is unable to reduce virus infectivity at the IC50 or other potent concentrations then the antiviral activity is not related to its virucidal ability. […] HSV-1 virus suspension at a concentration of approximately 10^10 pfu/mL and HSV-2 at 10^9 pfu/ml were prepared. […] These admixtures were then diluted […] (1:100) to yield a final concentration range of 0.25-4 μg/ml corresponding to 25-400 μg/ml.

HSV-2 [9] = experiment: Virucidal activity assay; assay type: cell-based; settings: 25-400 μg/mL
From the text: as §5

HSV-1 [10] = experiment: Antiviral activity prior to infection (pre-treatment plaque assay); assay type: cell-based; settings: 3.125-400 μg/mL
Method: (§6) In order for herpes viruses to enter a target cell, they must fuse their lipid membrane envelope with the lipid membrane of the cell. This complex viral entry mechanism is mediated by at least three conserved glycoprotein's (gC, gB and gD) and their ability to bind cell surface receptors such as nectins and herpes virus entry mediator (HVEM) (Cell. Mol. Life Sci, 2008, 65, 1653-1668). […] Vero cells were seeded onto 24 well plates at a density of 1.8×10^5 cells/well. […] Following incubation, the plates were washed with 0.85% saline and stained with 0.13% crystal violet.

HSV-2 [11] = experiment: as above; assay type: cell-based; settings: 3.125-400 μg/mL
Method: as §6

HSV-2 [12] = experiment: Mouse vaginal model of HSV-2 infection; assay type: in vivo, Balb/c female mice; settings: acyclovir 225 mg/kg/day intravaginal
Method: The assay was done as reported in Antiviral Research, 2006, 69:77-85, incorporated herein by reference for its procedure.
Balb/c female mice of 6 to 8 weeks, non-pregnant and nulliparous were used for the study. Female BALB/c mice were used for vaginal inoculation with HSV-2. Five days prior to intravaginal (IVAG) challenge, mice were injected subcutaneously (sc) with 2 mg of progesterone (Depo-Provera®; Pfizer, Belgium) in the upper back, using a 29-gauge needle. On the day of challenge, mice were inoculated intravaginally with 1.14×10^5 pfu of HSV-2. IVAG administrations of virus were via a micropipette in a total volume of 20 μL DMEM. Animals received Formulation IA, Formulation IB, Formulation IC/acyclovir/placebo intravaginally by topical administration 30 minutes post infection. […]
The following formulations, as described in Example 6, have been evaluated: • (a) Formulation IA • (b) Formulation IB • (c) Formulation IC
Formulation IA, Formulation IB and Formulation IC were applied topically thrice daily for a 5 day period. 15 mg of Formulation IA correspond to 225 mg/kg dose; 15 mg of Formulation IB correspond to 450 mg/kg dose and 15 mg of Formulation IC correspond to 675 mg/kg dose evaluated in the animals.
The animals were assessed daily for extravaginal disease signs and survival for a period of 21 days post infection. […]

## Nc1nc2c(ncn2COCCO)c(=O)[nH]1 [Acyclovir]
HSV-1 [1]
  mortality: None of the mice died
  recovery of all mice from zosteriform lesions: ≤ 7 day, post infection
HSV-1 [2]; 0.78 μg/mL
  inhibition at 0.78 µg/mL: 11 to 25%
HSV-1 [2]; 1.5 μg/mL
  inhibition at 1.5 µg/mL: 26 to 50%
HSV-1 [2]; 3.125 μg/mL
  inhibition at 3.125 µg/mL: 51 to 75%
HSV-1 [2]; 6.25 μg/mL
  inhibition at 6.25 µg/mL: 51 to 75%
HSV-1 [2]; 12.5 μg/mL
  inhibition at 12.5 µg/mL: 76 to 100%
HSV-2 [3]; 3.125 μg/mL
  inhibition at 3.125 µg/mL: 11 to 25%
HSV-2 [3]; 6.25 μg/mL
  inhibition at 6.25 µg/mL: 26 to 50%
HSV-2 [3]; 12.5 μg/mL
  inhibition at 12.5 µg/mL: 51 to 75%
HSV-2 [3]; 25 μg/mL
  inhibition at 25 µg/mL: 76 to 100%
HSV-1 [4]
  inhibitory activity (penetration): weak to moderate inhibitory activity
HSV-2 [5]
  inhibitory activity (penetration): weak to moderate inhibitory activity
HSV-1 [6]; 3.125-200 μg/mL, 0-7 hours
  antiviral effect: potent antiviral effect
HSV-1 [6]; 16-24 hours
  antiviral effect: about 17%
HSV-2 [7]; 3.125-200 μg/mL, 0-7 hours
  antiviral effect: potent antiviral effect
HSV-2 [7]; 16-24 hours p.i.
  antiviral effect: absent
HSV-1 [8]
  virucidal effect against HSV-1: 0-32%
HSV-2 [9]
  virucidal effect against HSV-2: 11-38%
HSV-1 [10]
  inhibitory effect against HSV-1 prior to infection: 10-40%
HSV-2 [11]
  inhibitory effect against HSV-2 prior to infection: 10-20%
HSV-2 [12]
  mortality: None of the mice died
  signs of extravaginal disease: None of the mice showed signs of extravaginal disease
